Measured values: patent US7537786B2, “Complex of drug-carbon nanohorn and a process for producing the complex” (NEC Corporation, priority 2005, dated 2009)

Columns and labels:
NCI-H460 cells = assay: WST-1 assay for cancer cell viability; format: cell-based, human; conditions: WST-1, incubation 46 and 72 hours
Method: The effect of CDDP released from CNHox was examined using the WST-1 assay. The CDDP-CNHox powder was added to human derived lung cancer cells NCI-H460. CDDP is a drug which has a effect on human lung cancer. These cells were maintained in RPMI-1640 medium containing 5% FBS at 37° C. in a humidified atmosphere with CO2 and air. For these cells, CDDP-CNHox or CDDP or CNHox was added respectively, and after the addition, each sample was examined. NCI-H460 cells were seeded at 4,000 cells/well and were cultured for 43 hours. Meanwhile, the cells were cultured for 67 hours when seeded at 2,500 cells/well (no addition of CDDP-CNHox or CDDP). And then it was confirmed that the NCI-H460 cells were extinct by drug addition. The amount of the extinct NCI-H460 cells was estimated by observing the decrease in the emission intensity to indicate the absorbency of formazan (with blue dye) showing the living of cells. And also, the NCI-H460 cells were directly observed using the optical microscope.

MC3T3-E1 cells = assay: ALP (alkaline phosphatase) activity assay; format: cell-based, mouse; conditions: MC3T3-E1, 10 days, differentiation-inducing medium with rhBMP-4
Method: Mouse osteoblastic cell (MC3T3-E1) lines were generously provided by Dr. Imamura (Cancer Institute, Japanese Foundation For Cancer Research). MC3T3-E1 cells were maintained in α-minimum essential medium (α-MEM) supplied with 5% FBS, […] in continuous culture at 37° C. in a humidified atmosphere of 5% CO2 and 95% air, and these cells were passaged every 3-4 days.
MC3T3-E1 cells were plated at 26,000 cells/cm^2 in 24 well plates and were grown until confluent. Next, the culture medium was exchanged with differentiation-inducing medium which consisted of α-MEM, 5% FBS, 100 U/ml penicillin, 100 μg/ml streptomycin, 50 μM ascorbic acid, 10 mM β-glycerophosphate and 20 ng/ml rhBMP-4. […]
For ALP activity assay, the medium was removed, and the cells were washed 3 times with TBS (20 mM Tris pH7.4, 150 mM NaCl), then harvested into 250 μl of TBS (contaning 0.2% Triton X-100) by scraping them on ice, and sonicated on ice for 5 min. […] The supernatant was mixed with p-nitro phosphate according to the manufacture's protocol, and the amount of p-nitrophenol released in 10 min was assessed by spectrophotometry (405 nm) with model 550 microplate-reader (Bio-Rad). Protein concentration of supernatant was assessed with protein quantitative assay kit (DC Protein Assay Kit) by the Lowry method. […]

| Structure (SMILES) | viability rate of NCI-H460 cells (NCI-H460 cells) | concentration at which ALP activity was increased (MC3T3-E1 cells) |
| --- | --- | --- |
| [NH2][Pt]([NH2])([Cl])[Cl] [CDDP, cisplatin] | decreased dose-dependently |  |
| C[C@@H]1C[C@H]2[C@@H]3CCC4=CC(=O)C=C[C@]4(C)[C@@]3(F)[C@@H](O)C[C@]2(C)[C@@]1(O)C(=O)CO [DEX, Dexamethasone] |  | no less than 0.05 μM |
